Reference: patent US9586985B2, “Organic compounds as proantigens for natural killer T cells” (Callaghan Innovation Research Limited, priority 2012, dated 2017)

Legend:
[1] = HPLC-ESI-MSMS quantification of α-GalCer in test samples; assay type: physicochemical; conditions: freshly reconstituted formulated sample; estimated maximum level
Procedure: Quantification of the amount of α-GalCer in various test samples of compounds of the invention is made by HPLC-ESI-MSMS analysis using a Waters 2795 HPLC and a Waters Q-TOF Premier™ Tandem Mass Spectrometer. The chromatography used a Phenomenex Kinetex C18 […] 3.0×50 mm column eluting with isocratic methanol containing 10 mM ammonium formate+0.5% formic acid at a flow rate of 0.2 mL/min. α-GalCer is monitored by selective reactant monitoring of 858.7 to 696.7 Da. The estimate of amount of α-GalCer is made by comparison of ion count integrals to a standard curve run on the same day or by comparison to test samples spiked with a known amount of α-GalCer.
The level of α-GalCer is determined on freshly reconstituted formulated samples unless otherwise stated. The estimated maximum level of α-GalCer for key compounds is given below.

human NKT cells = assay: Proliferation of human NKT cells in PBMC culture; assay type: cell-based; conditions: 7 days culture with IL-2, one donor, FIG. 6
Procedure: PBMC from one donor are cultured for 7 days with different doses of the indicated compounds in the presence of IL-2, and then the percentages of NKT cells in the final cultures determined by flow cytometry with fluorescent α-GalCer-loaded CD1d tetramers and anti-CD3. Data are expressed as percentage of NKT cells (α-GalCer/CD1d tetramer and anti-CD3-binding cells) of total T cells (all anti-CD3-binding cells).
Peripheral blood is drawn into heparinized tubes, diluted 1:1 in PBS, and layered over a sodium diatrizoate and polysaccharide solution (Lymphoprep; Axis-Shield, Oslo, Norway) before centrifugation at 800×g for 25 minutes at room temperature to collect the peripheral blood mononuclear cell (PBMC) fraction, which contains NKT cells. To assess proliferation of NKT cells, PBMC (2×10^5 per well) are cultured at 37° C. in Iscove's Modified Dulbecco's Medium with 5% human AB serum and the indicated concentrations of α-GalCer, or the compounds of the invention, with recombinant human IL-2 50 U/mL (Chiron Corporation, Emeryville, Calif.) added after 24 hours. After 7 days of culture, the cells are analysed by flow cytometry, using fluorescent soluble CD1d tetramers that have been loaded with α-GalCer to identify the NKT cells. […]

[2] = tested on: cytokines IL-12p70, IL-4 and IFN-g; assay: Cytokine release into serum after injection (cytokine bead array); assay type: in vivo, C57BL/6 mice
Procedure: (§1) Groups of C57BL/6 mice (n=3 per group) are injected intravenously with 200 ng of the indicated compounds, and then the serum is collected at the indicated times for analysis of cytokine levels by cytokine bead array technology.
as §1, with “ng of α-GalCer or an equivalent molar amount” for “ng”, “technology. (Compound CN158A1b=CN158 formulated in accordance with Example 15; Compound CN158A=CN158 in water.)” for “technology.”
Blood is collected from the lateral tail vein at different time intervals after glycolipid administration. Serum is collected after blood has clotted, and levels of cytokines IL-12p70, IL-4 and IFN-g are assessed by cytokine bead array technology (Bioplex, Biorad), according to the manufacturer's instructions.

B16.OVA melanoma cells = assay: Anti-tumour activity against subcutaneous B16.OVA tumours, given with OVA protein; assay type: in vivo, C57BL/6 mice; conditions: i.v. with 200 μg OVA protein seven days after tumour challenge
Procedure: Progression of subcutaneous B16.OVA tumours is monitored in animals that are treated seven days after tumour challenge with intravenous OVA protein together with the indicated compounds, or treated with PBS. The mean tumour sizes per group (n=5)±SEM are shown.
Progression of subcutaneous B16.OVA tumours is monitored in animals that are treated seven days after tumour challenge with intravenous OVA protein together with the indicated compounds, or treated with PBS. The mean tumour sizes per group (n=5)±SEM are shown. […] (Compound CN158A=CN158 in water.)
Groups of C57BL/6 mice (n=5) receive a subcutaneous injection into the flank of 1×10^5 B16.OVA melanoma cells, which express a cDNA encoding the chicken ovalbumin (OVA) sequence. The different groups are treated 7 days later, when tumours are fully engrafted, by intravenous injection of one of the following; 200 μg OVA protein together with 200 ng α-GalCer, 200 μg OVA protein together with 200 ng of a compound of the invention, or PBS. Mice are monitored for tumour growth every 3-4 days, and tumour size for each group is calculated as the mean of the products of bisecting diameters (±SEM). Measurements are terminated for each group when the first animal develops a tumour exceeding 200 mm^2.

Max α-GalCer (ppm) [1]: 40 ppm | Max α-GalCer/injection [1]: 0.008 ng
SMILES: CCCCCCCCCCCCCCCCCCCCCCCCCC(=O)O[C@H](CCCCCCCCCCCCCC)[C@@H](O)[C@H](CO[C@H]1O[C@H](CO)[C@H](O)[C@H](O)[C@H]1O)NC(=O)OCOC(=O)C(C)(C)C [CN145, (2S,3S,4R)-1-O-α-D-Galactopyranosyl-4-O-hexacosanoyl-2-(pivaloyloxymethoxycarbonylamino) octadecane-1,3,4-triol]
expansion of human NKT cells from PBMC (human NKT cells): able to induce the expansion of human NKT cells | cytokine profile in vivo compared to α-GalCer ([2]; 200 ng i.v. or molar equivalent, FIGS. 3 and 8): different cytokine profiles | course of IL-12p70 level in serum ([2]; 200 ng i.v., FIG. 3): still increasing through 6 to 12 h | ratio of IFN-γ to IL-4 in serum compared to α-GalCer ([2]; 200 ng i.v., FIG. 3): higher ratio of IFN-γ to IL-4 than that of α-GalCer | overall levels of systemic cytokine production ([2]; 200 ng α-GalCer or equivalent i.v., FIGS. 3 and 8): not as potent as α-GalCer in terms of overall levels of cytokine production | anti-tumour activity: growth of established B16.OVA tumours (B16.OVA melanoma cells): equally beneficial in promoting immune responses that suppress growth of established tumours
